Results published in PMC5355877, “The development of novel LTA4H modulators to selectively target LTB4 generation” (Scientific Reports, 2017).
“Also recorded” adds a separate entry of the source. Read-outs that look alike come from different tables or passages of the source.

Tests used:
[1] = biological target: T1, LTA4H epoxide hydrolase activity (LTB4 generation) (Mus musculus, UniProt P24527); assay: LTA4H epoxide hydrolase activity: LTB4 generation by A23187-treated murine bone marrow neutrophils (EIA); assay type: cell-based
T1 construct: endogenous in cells; host or cells: murine bone marrow neutrophils
T1 sequence (P24527 1-611): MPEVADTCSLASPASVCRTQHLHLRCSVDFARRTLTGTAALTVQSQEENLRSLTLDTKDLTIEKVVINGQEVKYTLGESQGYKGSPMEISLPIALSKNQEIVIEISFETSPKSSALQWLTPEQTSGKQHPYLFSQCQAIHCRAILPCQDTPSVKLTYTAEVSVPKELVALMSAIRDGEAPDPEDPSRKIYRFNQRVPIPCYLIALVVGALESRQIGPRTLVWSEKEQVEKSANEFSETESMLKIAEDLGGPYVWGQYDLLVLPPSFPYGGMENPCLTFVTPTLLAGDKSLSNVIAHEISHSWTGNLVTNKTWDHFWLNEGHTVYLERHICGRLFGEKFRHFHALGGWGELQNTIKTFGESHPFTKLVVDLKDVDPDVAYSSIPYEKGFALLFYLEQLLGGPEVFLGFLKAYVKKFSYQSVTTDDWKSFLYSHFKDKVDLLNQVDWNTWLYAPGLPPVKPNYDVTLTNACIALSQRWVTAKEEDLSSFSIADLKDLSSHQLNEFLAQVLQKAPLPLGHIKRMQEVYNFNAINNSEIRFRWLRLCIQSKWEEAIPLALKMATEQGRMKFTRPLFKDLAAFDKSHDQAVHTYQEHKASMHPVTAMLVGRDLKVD
Method: To isolate murine bone marrow neutrophils, the femur and the tibia from both hind legs were removed and freed of soft tissue attachments, and the extreme distal tip of each extremity cut off. HBSS containing 15 mM EDTA and 30 mM HEPES was forced through the bone with a syringe. After dispersing cell clumps and passage through a […] sieve (BD labware, New Jersey), red blood cells were lysed by resuspending pellets in ACK buffer (for 3 minutes at room temperature) before centrifugation (800 × g, 5 min) and washing with HBSS. The cell suspension was centrifuged (800 × g, 5 min, 4 °C) and resuspended in RPMI.
1% DMSO was used as a control. Cells were incubated for 20 minutes at 37 °C, and the reaction was terminated by centrifugation (600 × g, 5 min, 4 °C). Supernatants were removed and stored at −80 °C for subsequent LTB4 analysis. The concentration of LTB4 generated in the epoxide hydrolase activity assay was assayed using an EIA, according to manufacturer’s directions (R&D systems, Minneapolis, MN). Test compounds were assayed in a blinded manner by an investigator during determination of effect on LTA4H epoxide hydrolase activity.

[2] = biological target: T2, recombinant human LTA4H (aminopeptidase, PGP substrate) (Homo sapiens, UniProt P09960); assay: LTA4H aminopeptidase activity: PGP degradation by recombinant human LTA4H; assay type: biochemical
T2 construct: purchased Cayman Chemicals
T2 sequence (P09960 1-611): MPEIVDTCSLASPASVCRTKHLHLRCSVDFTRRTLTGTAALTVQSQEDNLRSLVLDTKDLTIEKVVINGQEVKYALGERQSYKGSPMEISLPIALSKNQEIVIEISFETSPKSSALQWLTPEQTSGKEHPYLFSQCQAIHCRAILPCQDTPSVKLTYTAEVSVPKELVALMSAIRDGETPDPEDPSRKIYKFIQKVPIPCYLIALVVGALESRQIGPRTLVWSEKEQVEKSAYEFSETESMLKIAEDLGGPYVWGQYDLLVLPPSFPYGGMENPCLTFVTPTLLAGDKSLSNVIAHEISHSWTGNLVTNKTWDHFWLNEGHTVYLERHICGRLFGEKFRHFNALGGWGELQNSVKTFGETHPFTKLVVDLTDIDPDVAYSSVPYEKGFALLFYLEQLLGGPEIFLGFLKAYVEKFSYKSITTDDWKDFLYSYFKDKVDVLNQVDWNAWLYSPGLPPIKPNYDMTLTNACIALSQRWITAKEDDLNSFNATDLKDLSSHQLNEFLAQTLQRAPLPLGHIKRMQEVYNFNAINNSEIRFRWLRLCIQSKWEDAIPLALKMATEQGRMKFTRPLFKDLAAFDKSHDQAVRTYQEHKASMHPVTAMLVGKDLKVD
Method: (§1) For peptide quantification in serum, PGP and AcPGP were measured using a MDS Sciex API-4000 spectrometer (Applied Biosystems, Foster City, CA) equipped with a Shimadzu HPLC (Columbia, MD). For peptide quantification from degradation experiments, PGP and AcPGP were measured using a Thermo Accela Pump and Autosampler coupled to a Thermo TSQ Quantum Access. […] Peak area was measured, and PGP/AcPGP peptide concentrations were calculated using a relative standard curve method as previously described.
(§2) Mouse serum (diluted 1/10 in PBS) or recombinant human LTA4H (0.1 μg/ml; Cayman Chemicals, Michigan, USA) were incubated with 0.4 mM PGP at 37 °C in 5% CO2 for varying periods of time. Concentrations of PGP remaining were subsequently quantified by ESI-LC/MS/MS (as discussed above) by comparison with PGP standards. The percentage of peptide degraded was determined relative to control samples of 0.4 mM PGP alone. PGP degradation was also assessed by measurement of free proline released and its ensuing reaction with Ninhydrin (as discussed below). Test compounds were assayed in a blinded manner by an investigator during determination of the effect on LTA4H aminopeptidase activity.
To assess free proline liberated, aliquots from PGP degradation experiments were diluted 1 in 10 in PBS (to a final volume of 250 μl). Glacial acetic acid (250 μl) was then added, followed by 250 μl of ninhydrin solution (25 mg/ml in acetic acid/6 M phosphoric acid; heated at 70 °C to dissolve). The reaction mixture was heated at 100 °C for 60 minutes, allowed to cool to room temperature and the proline containing fraction extracted with 500 μl of toluene and optical density measured at 520 nm.

[3] = biological target: T3, LTA4H aminopeptidase activity (Ala-p-nitroanilide substrate) (Homo sapiens, UniProt P09960); assay: LTA4H aminopeptidase activity versus Ala-p-nitroanilide substrate; assay type: biochemical; details: in our hands
T3 sequence (P09960 1-611): T2 sequence (P09960 1-611)

[4] = biological target: T3, LTA4H aminopeptidase activity (Ala-p-nitroanilide substrate); design: method as in PMID 21983441; details: read-out: AC50 for augmenting aminopeptidase activity; cited from earlier work
[5] = logD pH7.4; assay type: physicochemical; details: pH 7.4; read-out: logDpH7.4
Excerpt: (§3) ARM1 (4-(4-benzylphenyl)-1,3-thiazole-2-amine), compound 11 (7-hydroxy-3-(4-hydroxyphenyl)-4H-chromen-4-one) and compound 13 (7-hydroxy-3-phenyl-4H-chromen-4-one) were all purchased from VitasMLab (Kowloon, Hong Kong). […] All other compounds were custom synthesized by Peakdale Molecular as described in Supplementary Information. ADMET (absorption, distribution, metabolism, and excretion – toxicity) studies were also outsourced to Peakdale Molecular.

[6] = Mouse plasma protein binding; assay type: in vitro ADME
Excerpt: as §3

[7] = Human plasma protein binding; assay type: in vitro ADME
Excerpt: as §3

[8] = Mouse liver microsome stability; assay type: in vitro ADME; details: liver microsomes
Excerpt: as §3

[9] = Human liver microsome stability; assay type: in vitro ADME; details: liver microsomes
Excerpt: as §3

[10] = test system: serum aminopeptidase PGP-degrading activity; assay: Serum aminopeptidase PGP-degrading activity after oral dosing of mice; assay type: in vivo; details: 10 mg/kg orally, naïve female BALB/c mice, blood 4 h after dosing
Method: (§4) Blood was obtained from mice 4 h after oral dosing and downstream analysis performed blinded by an independent researcher. […] The reaction was terminated by centrifugation (600 × g, 5 min, 4 °C). Supernatants were analyzed for LTB4 by EIA (see below). To assess inhibition of aminopeptidase activity, PGP degrading capacity of serum was assessed as detailed below. Furthermore, absolute concentrations of PGP in serum was determined as detailed below.
as §2

[11] = test system: serum PGP; assay: Absolute serum PGP concentrations after oral dosing of mice; assay type: in vivo; details: 10 mg/kg orally, naïve female BALB/c mice, blood 4 h after dosing
Method: as §4, §1

[12] = test system: LTB4 generation; details: oral administration to naïve mice; cited from earlier work
[13] = LTB4 generation, murine neutrophils, Table 2, read-out: Epoxide Hydrolase IC50 ± SEM
[14] = PGP degradation, Table 2, read-out: Aminopeptidase IC50 ± SEM
[15] = LTB4 generation, murine neutrophils, Table 1, read-out: Epoxide Hydrolase IC50 ± SEM
[16] = LTB4 generation, murine neutrophils, Table 3, read-out: Epoxide Hydrolase IC50 ± SEM
[17] = PGP degradation, Table 3, read-out: Aminopeptidase IC50 ± SEM

For `Oc1ccc(/C=C\c2cc(O)cc(O)c2)cc1` [Compound 2, cis-Resveratrol], the IC50 [1, 13] was 14.3 ± 2.1 µM.
Work on `COc1ccc(/C=C/c2cc(OC)cc(OC)c2)cc1` [Compound 3, trans-trismethoxy Resveratrol] yielded an IC50 [1, 13] of 41.2 ± 5.5 µM and an IC50 [2, 14] of 68.8 ± 9.9 µM.
In the case of `CC(=O)Oc1ccc(/C=C/c2cc(OC(C)=O)cc(OC(C)=O)c2)cc1` [Compound 4, 5-[(1E)-2-[4-(acetyloxy)phenyl]ethenyl]-1,3-Benzenediol-1,3-diacetate], the IC50 [1] is reported as 38.6 ± 5.9 µM and the IC50 [2, 14] is reported as > 100 µM.
In the case of `COc1ccc(Cc2ccccc2)cc1` [Compound 4-MDM, 4-Methoxydiphenylmethane, reference compound], the IC50 [1, 15] is reported as 48.9 µM, the IC50 ([2]; PGP degradation, recombinant LTA4H, Table 1, read-out: Aminopeptidase IC50 ± SEM) is reported as 75.2 µM and the “effect on aminopeptidase activity with physiological substrate PGP” value ([2]; PGP substrate) is reported as “modest inhibition; also recorded: failed to augment PGP degradation”. For the same molecule, the “effect on aminopeptidase activity versus Ala-p-nitroanilide substrate” value [3] was “did promote aminopeptidase activity” and the AC50 [4] was 50 µM.
With `COc1cc(O)cc(/C=C/c2ccc(O)cc2)c1` [Compound 5, 3-[(1E)-2-(4-hydroxyphenyl)ethenyl]-5-methoxyphenol hydrate] the IC50 [1, 13] was 3.9 ± 0.4 µM and the IC50 [2] was 99.5 ± 22.6 µM.
With `COc1cc(O)cc(CCc2ccc(O)cc2)c1` [Compound 6] the IC50 [1, 13] was 6.4 ± 0.7 µM and the IC50 [2, 14] was > 100 µM.
In the case of `CCOc1cc(O)cc(CCc2ccc(O)cc2)c1` [Compound 7], the IC50 [1, 13] is reported as 3.2 ± 0.7 µM and the IC50 [2, 14] is reported as > 100 µM.
In the case of `COc1cc(O)cc(CCc2cccc(O)c2)c1` [Compound 8], the IC50 [1, 13] is reported as 1.7 ± 0.25 µM and the IC50 [2, 14] is reported as > 100 µM.
For `O=C(Cc1ccc(O)cc1)c1ccc(O)cc1O` [Compound 10, 1-(2,4-Dihydroxyphenyl)-2-(4-hydroxyphenyl)ethanone], the IC50 [1, 16] was 34.2 ± 4.7 µM and the IC50 [2, 17] was > 100 µM.
With `O=c1c(-c2ccc(O)cc2)coc2c(O)c(O)ccc12` [Compound 12, 7,8,4′-trihydroxyisoflavone] the IC50 [1, 16] was 7.3 ± 0.8 µM, the “selectivity for hydrolase over peptidase inhibition” value ([1]; ratio of aminopeptidase to epoxide hydrolase IC50) was > 8 fold and the IC50 [2, 17] was 62.7 ± 13.3 µM. For the same molecule, the logD [5] was 1.24 ± 0.06, the fraction unbound [6] was 0.0723 and the fraction unbound [7] was 0.0326. For the same molecule, the microsomal CLint [8] was 8.9 ± 0.7 µL/min/mg, the half-life ([8]; read-out: Mouse liver microsomes t1/2) was 1.3 ± 0.102 h and the microsomal CLint [9] was < 5 µL/min/mg. For the same molecule, the half-life ([9]; read-out: Human liver microsomes t1/2) was > 2.32 h.
In the case of `O=c1c(-c2ccccc2)coc2cc(O)ccc12` [Compound 13, 7-hydroxy-3-phenyl-4H-chromen-4-one], the IC50 [1, 16] is reported as 48.2 ± 14.6 µM and the IC50 [2, 17] is reported as > 100 µM.
Molecule `O=c1c(-c2ccc(O)cc2)coc2c3c(ccc12)OCO3` [Compound 14] has an IC50 [1, 16] of 20.6 ± 2.4 µM and an IC50 [2, 17] of 20.6 ± 3.3 µM.
For `Cc1ccc2c(=O)c(-c3ccc(O)cc3)coc2c1O` [Compound 15], the IC50 [1, 16] was 1.2 ± 0.21 µM and the IC50 [2, 17] was 69.2 ± 10.9 µM.
Molecule `O=C(O)CCCN1CCC[C@H]1COc1ccc(Oc2ccc(Cl)cc2)cc1` [DG-051, 4-[(2S)-2-{[4-(4-chlorophenoxy)phenoxy]methyl}-1-pyrrolidinyl]butanoic acid, reference compound] has an IC50 [1, 15] of 0.68 ± 0.01 µM.
For `CC(=O)NC1CC2CCC(C1)N2Cc1ccc(Oc2nc3ncccc3s2)cc1` (stereo not drawn) [JNJ-40929837], the IC50 [1] was 0.009 ± 9e-05 µM, the IC50 [2] was 0.0094 ± 0.0013 µM and the “serum aminopeptidase PGP-degrading activity” value [10] was “potently abrogates; also recorded: potently inhibited”. The “serum PGP” value [11] was “serum accumulation of PGP”.
With `CN(CCCOc1ccc(Cc2ccccc2)cc1)CCC(=O)O.Cl` [SC57461A, 3-[methyl[3-[4-(phenylmethyl)phenoxy]propyl]amino]propanoic acid HCl] the IC50 [1, 15] was 0.11 ± 0.0235 µM, the “serum aminopeptidase PGP-degrading activity” value [10] was “potently abrogates; also recorded: potently inhibited” and the “serum PGP” value [11] was “serum accumulation of PGP”. For the same molecule, the “inhibition of LTB4 generation in ex vivo whole blood assay” value [12] was “potent inhibition”.
